Results reported in US10597696B2, “Detection of Niemann-Pick disease comprising detection of lysozyme and cathepsins” (UNIVERSITY OF NOTRE DAME DU LAC, priority 2013, dated 2020).

How the values were obtained:
Npc1^nih Npc1^−/− mice = experiment: Plasma lysozyme activity in HPβCD-treated Npc1^nih mice; type: in vivo, mouse
Method: Lysozyme activity in plasma was measured using fluorescence based lysozyme assay kit (EnzCheck, Life Technologies, Carlsbad, Calif., USA) as describer earlier (19). Plasma corresponding to 25 μg protein from female and male Npc1^nih mice was used in a 100 μl reaction volume. The reaction was carried out at 37° C. for 24 h. Fluorescence was read using excitation/emission of 494/518 nm in a multiwell plate reader spectramax M2 (Molecular devices, CA, USA). The values obtained were normalized by dividing the numbers by the mean value of lysozyme obtained among untreated Npc1^+/− mice. Purified chicken egg white lysozyme was used as a positive control. Starting at P21 and once a week thereafter, Npc1^nih and Npc1^nmf164 mice were injected i.p with 20% 2-hydroxypropyl-beta-cyclodextrin (HPβCD, 4000 mg/Kg) prepared in 0.2% DMSO and 0.9% saline. Control mice received 0.2% DMSO in 0.9% saline. Blood was collected either via cheek bleed or terminal heart bleed from mice in EDTA tubes (BD Biosciences, San Jose, Calif., USA). Plasma was separated by centrifugation at 2500 rpm for 15 min and stored at −70° C. until used.

Npc1^nih mice = experiment: Onset of symptoms and survival of HPβCD-treated Npc1^nih mice; type: in vivo, mouse; conditions: weekly 4000 mg/Kg from P21
Method: Starting at P21 and once a week thereafter, Npc1^nih and Npc1^nmf164 mice were injected i.p with 20% 2-hydroxypropyl-beta-cyclodextrin (HPβCD, 4000 mg/Kg) prepared in 0.2% DMSO and 0.9% saline. Control mice received 0.2% DMSO in 0.9% saline. Blood was collected either via cheek bleed or terminal heart bleed from mice in EDTA tubes (BD Biosciences, San Jose, Calif., USA). Plasma was separated by centrifugation at 2500 rpm for 15 min and stored at −70° C. until used.
To examine time points of advanced disease, we returned to the shorter, Npc1^nih model. This model typically manifests phenotypic symptoms (weight loss, gait, tremor etc.) from ˜50-55 days and survives up to ˜80-84 days (FIG. 18A). […] We therefore treated Npc1^−/− mice with HPβCD or vehicle control (0.2% DMSO in 0.9% saline) with once a week drug injections (4000 mg/Kg) starting at age P21. […] As reported earlier, the plasma lysozyme activity of vehicle treated Npc1^−/− mice was elevated on average 2-fold in early symptomatic (50-60 days) animals (FIG. 18B) and remained elevated at the late symptomatic stage (70 days) compared to age matched controls (FIG. 18C).

[1] = Npc1^nih Npc1^−/−, weekly HPβCD, at 80+ days

For CC(O)COC[C@H]1O[C@@H]2O[C@H]3[C@H](O)[C@@H](O)[C@@H](O[C@H]4[C@H](O)[C@@H](O)[C@@H](O[C@H]5[C@H](O)[C@@H](O)[C@@H](O[C@H]6[C@H](O)[C@@H](O)[C@@H](O[C@H]7[C@H](O)[C@@H](O)[C@@H](O[C@H]8[C@H](O)[C@@H](O)[C@@H](O[C@H]1[C@H](O)[C@H]2O)O[C@@H]8COCC(C)O)O[C@@H]7COCC(C)O)O[C@@H]6COCC(C)O)O[C@@H]5COCC(C)O)O[C@@H]4COCC(C)O)O[C@@H]3COCC(C)O (stereo partly drawn) [HPβCD, 2-hydroxypropyl-beta-cyclodextrin], the “decrease of plasma lysozyme” value (Npc1^nih Npc1^−/− mice; NPC mice, composite quartile analysis (FIG. 20B)) was 50%, the plasma lysozyme activity (Npc1^nih Npc1^−/− mice; Npc1^nih Npc1^−/−, weekly 4000 mg/Kg from P21, at 50-60 days) was “reduced plasma lysozyme activity levels seen in wild type mice” and the “plasma lysozyme compared to mock treated animals” value (Npc1^nih Npc1^−/− mice; [1]) was “reduction”. The “plasma lysozyme increase compared to normal animals” value (Npc1^nih Npc1^−/− mice; [1]) was 1.5 fold, the survival (Npc1^nih mice; untreated up to ~80-84 days) was 105 to 112 days and the onset of symptoms (Npc1^nih mice; untreated ~49-56 days) was 70 to 80 days.
